Biological target: PAR4 (Homo sapiens (Human), UniProt Q96RI0)
Assay: FLIPR assay in PAR4-expressing HEK293 cells (PAR4 antagonist activity, calcium mobilization)
Type: cell-based
Conditions: FLIPR assay as described in Example A
Source text: The FLIPR assay is an exemplary in vitro assay for measuring the activity of the PAR4 antagonists of the present invention. In this assay, intracellular calcium mobilization is induced in PAR4 expressing cells by a PAR4 agonist and calcium mobilization is monitored. See, e.g., Example A.
HEK293 cells stably expressing PAR4 were generated by a standard method of transfection of human […] cDNA expression vector or by RAGE technology from Athersys Inc. (Cleveland, Ohio) and selected based on PAR4 protein expression of mRNA expression. […] These cells express endogenous PAR1 and can elicit calcium signal upon stimulation with PAR1 agonist peptide.
Counter screens for agonist activity and PAR1 antagonist activity were also performed. Briefly, HEK293 EBNA PAR4 clone 20664.1J cells were plated 24 hrs. prior to experiment in 384 well, Poly-D-Lysine coated, black, clear bottom plates (Greiner Bio-One, Monroe, N.C.). Cells were plated at 20,000 cells/well in 20 μl growth medium and incubated at 37° C. with 5% CO2 overnight. At time of assay, media was replaced with 40 μl 1× Hank's Buffered Saline Solution (HBSS) (with 10 mM HEPES) and 20 μl test compound also diluted in 1×HBSS buffer was added at various concentrations and 0.67% DMSO final concentration on the FDSS for agonist measurement. The cells were then incubated for 30 minutes at room temperature followed by addition of 20 μl of agonist peptide for antagonist measurement on the FDSS.
As indicated above, the FLIPR assay, an in vitro assay, measures the PAR4 antagonist activity of compounds tested as described in Example A.

Sequence of PAR4 (Q96RI0 18-385): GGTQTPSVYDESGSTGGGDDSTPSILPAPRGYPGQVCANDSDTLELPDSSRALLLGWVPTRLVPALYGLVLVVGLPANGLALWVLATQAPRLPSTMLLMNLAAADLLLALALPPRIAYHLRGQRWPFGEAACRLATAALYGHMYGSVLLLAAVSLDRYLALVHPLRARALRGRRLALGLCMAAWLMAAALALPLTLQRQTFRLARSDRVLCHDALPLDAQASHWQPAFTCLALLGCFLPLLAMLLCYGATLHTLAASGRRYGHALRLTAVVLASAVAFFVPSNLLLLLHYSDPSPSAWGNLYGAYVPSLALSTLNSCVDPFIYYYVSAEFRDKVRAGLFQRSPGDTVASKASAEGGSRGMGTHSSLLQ

| SMILES | IC50 |
| --- | --- |
| COc1cc(OC(C)C)c2cc(-c3cn4nc(SC)sc4n3)oc2c1 [Example 298] | 18.6 nM |
| COc1cc(OCc2cccc(OCc3ccc(I)cc3)c2)c2cc(-c3cn4nc(OC)sc4n3)oc2c1 [Example 391] | 3.03 nM |
| COc1nn2cc(-c3cc4c(O)cccc4o3)nc2s1 [Example 211, 2-(2-Methoxyimidazo[2,1-b][1,3,4]thiadiazol-6-yl)benzofuran-4-ol] | 111 nM |
| CCc1nn2cc(-c3nc4ccc(OCc5ccccc5)cc4o3)nc2s1 [Example 67] | 103 nM |
| Fc1ccc2cc(-c3cn4nc(Br)sc4n3)oc2c1 [Example 264] | 37.8 nM |
| COc1nn2cc(-c3cc4c(OCc5cccc(OCc6ccccc6)c5)cc(C#N)cc4o3)nc2s1 [Example 417] | 5.02 nM |
| CCOc1cc(OC)cc2oc(-c3cn4nc(Br)sc4n3)cc12 [Example 267] | 7.53 nM |
| COc1nn2cc(-c3cc4cccc(OC)c4o3)nc2s1 [Example 9, 2-Methoxy-6-(7-methoxybenzofuran-2-yl)imidazo[2,1-b][1,3,4]thiadiazole] | 224 nM |
| Cc1cc2nc(-c3cn4nc(C(C)(F)F)sc4n3)oc2cc1C [Example 179] | 225 nM |
| CSc1nn2cc(-c3cc4c(F)cccc4o3)nc2s1 [Example 262] | 4.28 nM |
| COc1cccc2oc(-c3cn4nc(SC)sc4n3)nc12 [Example 149] | 13.6 nM |
| CSc1nn2cc(-c3nc4cccc(F)c4o3)nc2s1 [Example 143] | 48.8 nM |
| COc1cc(COc2cccc(COc3cc(OC)cc4oc(-c5cn6nc(OC)sc6n5)cc34)c2)cc(OC)c1 [Example 390] | 1.6 nM |
| CCOc1cc(OC)cc2oc(-c3cn4nc(OC)sc4n3)cc12 [Example 206] | 2.01 nM |
| CC(F)(F)c1nn2cc(-c3cc4c(OCc5cccc(OCc6ccccc6)c5)cc(OS(=O)(=O)C(F)(F)F)cc4o3)nc2s1 [Example 422] | 698 nM |
| COc1cc(OCc2cccc(OCc3ccccc3I)c2)c2cc(-c3cn4nc(OC)sc4n3)oc2c1 [Example 379] | 7.84 nM |
| CCOc1ccc2nc(-c3cn4nc(SC)sc4n3)oc2c1 [Example 160] | 40 nM |
| COc1cc(OCc2cccc(OCc3cc(OC)c(OC)c(OC)c3)c2)c2cc(-c3cn4nc(OC)sc4n3)oc2c1 [Example 380] | 1.11 nM |
| CSc1nn2cc(-c3nc4ccc(N)cc4o3)nc2s1 [Example 176] | 701 nM |
| COc1nn2cc(-c3nc4cc(OC(F)(F)F)ccc4o3)nc2s1 [Example 140] | 68.9 nM |
| COc1cc2oc(-c3cn4nc(SC)sc4n3)cc2cc1Cl [Example 202, 6-(5-Chloro-6-methoxybenzofuran-2-yl)-2-(methylthio)imidazo[2,1-b][1,3,4]thiadiazole] | 3.15 nM |
| COc1cc(OCc2cccc(OCc3cccc(NC(=O)c4ccccc4)c3)c2)c2cc(-c3cn4nc(OC)sc4n3)oc2c1 [Example 397] | 2.3 nM |
| COc1nn2cc(-c3nc4cc(Cl)ccc4o3)nc2s1 [Example 130] | 41.3 nM |
| CSc1nn2cc(-c3cc4c(C)cc(C)cc4o3)nc2s1 [Example 295] | 12.1 nM |
| CSc1nn2cc(-c3nc4c(OCc5cccc(C#N)c5)cccc4o3)nc2s1 [Example 156] | 1020 nM |
| COc1cc(OCc2cccc(OCc3ccc(Cl)c(Cl)c3)c2)c2cc(-c3cn4nc(OC)sc4n3)oc2c1 [Example 365] | 3.27 nM |
| COc1cc2oc(-c3cn4nc(C(C)F)sc4n3)cc2cc1Cl (stereo in doubt) [270A] | 114 nM |
| CSc1nn2cc(-c3nc4c(Cl)cccc4s3)nc2s1 [Example 187] | 771 nM |
| COCOc1c(Br)ccc2oc(-c3cn4nc(OC)sc4n3)cc12 [Example 217A, 6-(5-Bromo-4-(methoxymethoxy)benzofuran-2-yl)-2-methoxyimidazo[2,1-b][1,3,4]thiadiazole] | 45.1 nM |
| CSc1nn2cc(-c3nc4ccc(OC(F)(F)F)cc4s3)nc2s1 [Example 180, 2-(2-(Methylthio)imidazo[2,1-b][1,3,4]thiadiazol-6-yl)-6-(trifluoromethoxy)benzo[d]thiazole] | 189 nM |

Source: patent publication US9862730B2, “Imidazothiadiazole derivatives as protease activated receptor 4 (PAR4) inhibitors for treating platelet aggregation” (BRISTOL-MYERS SQUIBB COMPANY, priority 2012, dated 2018)
